From patent publication EP0561913B1, “USE OF PYRIDINE DERIVATIVES IN THE TREATMENT OF OCULAR HYPERTENSION” (ALLERGAN, INC., priority 1990, dated 1992)
Entries after “also recorded” stand apart in the source; their conditions may differ. Read-outs that look alike come from different tables or passages of the source.

Key:
rabbits [1] = assay: In vivo study of intraocular pressure reducing activity, intracameral injection
Procedure: (§1) Pyridine-1,2,3,6-tetrahydro-5-(5-isoxazolyl)-1-methyl-ethanedioate ("test compound") or pilocarpine were applied either topically into the eyes of owl monkeys (200 µg in 10 µl) or intracamerally into the eye of rabbits (10 µg in 20 µl). Control animals were treated with a saline vehicle. Pupil diameter and IOP were measured for 0-6 hours. IOP was measured using pneumatometer (Digilab/ Biorad) and pupil diameter was measured using Optistick ruler (Allergan). Animals used in these studies had normal intraocular pressure.
(§2) Muscarinic activity was determined by treatment with atropine (muscarinic antagonist). In rabbits 5 µg atropine was coinjected with the test compounds and in owl monkey 5 µg atropine (10 µl) was applied 30 minutes before treatment with the test compound.
(§3) Intraocular pressure (mmHg) or pupil diameter (mm) were expressed as changes from time 0.

owl monkeys [2] = assay: In vivo study of intraocular pressure reducing activity, topical application
Procedure: as §1, §2, §3

rabbits [3] = assay: Pupil diameter (miosis), intracameral injection
Procedure: as §1, §2, §3

owl monkeys [4] = assay: Pupil diameter (miosis), topical application
Procedure: as §1, §2, §3

[5] = test system: cat ciliary smooth muscle; assay: In vitro contraction of isolated ciliary smooth muscle in organ bath; type: cell-based; conditions: for EC50: cumulative dose response, 37°C, read-out: ED50 (concentration that caused 50% of maximum contraction)
Procedure: (§4) Iris sphincter and ciliary smooth muscles were excised from freshly enucleated cat eyes. The tissues were placed in an organ bath containing Tyrode's solution (composition in mM: NaCl 137, KCl 2.7, CaCl2 1.8, MgCl2 1.05, NaHCO3 11.9, NaH2PO4 0.42, D-glucose 5.6) at 37°C, aerated with 95% oxygen and 5% carbon dioxide. One end of the tissue was fastened to a hook in the bath and the other end was attached to a force displacement transducer connected to a polygraph. The tissues were allowed to equilibrate for 60 minutes under a load of 100-200 mg tension. […] Increasing concentrations of the test compound (0.1 - 1000 µM) were then added into the bath to generate cumulative dose response. […] Results were from three or more experiments expressed as mean ± S.E.

[6] = test system: cat iris sphincter smooth muscle; assay: In vitro contraction of isolated iris sphincter smooth muscle in organ bath; type: cell-based; conditions: for EC50: cumulative dose response, 37°C, read-out: ED50 (concentration that caused 50% of maximum contraction)
Procedure: as §4

rabbits [7] = conditions: normotensive rabbits or humans, from literature; cited from earlier work
[8] = topical 5 µg/10 µl atropine, test compound 200 µg/10 µl

SMILES: CN1[C@@H]2CC[C@H]1C[C@@H](OC(=O)C(CO)c1ccccc1)C2 (some centres unmarked) [atropine]
- inhibition of IOP effect of the test compound by atropine (rabbits [1]; rabbits, 5 µg/20 µl atropine coinjected with test compound 10 µg/20 µl): partial inhibition
- inhibition of IOP effect of the test compound by atropine (rabbits [1]; rabbits, topical 0.5% atropine solution every 2 hours (data not shown)): no inhibitory effect
- inhibition of IOP reducing effect of the test compound by atropine (owl monkeys [2]; [8]): no inhibitory effect
- inhibition of miotic effect of the test compound by atropine (rabbits [3]; 5 µg atropine with test compound 10 µg/20 µl intracameral): completely inhibited
- inhibition of miotic effect of the test compound by atropine (owl monkeys [4]; [8]): completely inhibited
- inhibition of test compound-induced contraction by atropine ([5]; 10 nM atropine for 30 minutes before test compound): competitive inhibition
- effect of atropine in inhibiting the response of the iris relative to the ciliary ([6]; 10 nM atropine, iris versus ciliary muscle): 2.5 times
- inhibition of test compound-induced contraction by atropine ([6]; cat iris sphincter muscle, 10 nM atropine for 30 minutes before test compound): competitive inhibition

SMILES: CC[C@@H]1C(=O)OC[C@@H]1Cc1cncn1C [pilocarpine, (3S,4R)-3-ethyl-4-{(1-methyl-1H-imidazol-5-yl)methyl}-3,4-dihydro-2(3H)-furanone]
- effect on IOP (rabbits [1]; normotensive rabbits, intracameral 10 µg/20 µl, result in words): no hypotensive effect; also recorded: slight hypertensive action
- decrease in IOP (owl monkeys [2]; topical 200 µg/10 µl, at 3 hours, effect decreased thereafter): about 3 mmHg
- EC50 ([5]; Felis catus): 4 µM
- EC50 ([6]; Felis catus, cat iris sphincter muscle): 4 µM
- decrease in IOP (rabbits [7]): little or no decrease

SMILES: CN1CCC=C(c2ccno2)C1.O=C(O)C(=O)O [test compound, Pyridine-1,2,3,6-tetrahydro-5-(5-isoxazolyl)-1-methyl-ethanedioate]
- decrease in IOP (rabbits [1]; normotensive rabbits, intracameral 10 µg/20 µl, 5 hours after administration, change from time 0): 6 mmHg
- duration of IOP decreasing activity (rabbits [1]; rabbits, intracameral 10 µg/20 µl, experimental period ended at 6 hours): > 6 h
- maximum decrease in IOP (owl monkeys [2]; topical 200 µg/10 µl, after 5 and 6 hours): 4 mmHg
- duration of IOP reducing effect (owl monkeys [2]; topical 200 µg/10 µl, experimental period of 6 hours): > 6 h
- miosis (rabbits [3]; intracameral 10 µg/20 µl, effect of pilocarpine greater than that of the test compound): caused miosis
- time of maximum miotic response (rabbits [3]; intracameral 10 µg/20 µl, followed by recovery): 0.5 h
- miosis, decrease in pupil size (owl monkeys [4]; topical 200 µg/10 µl, at 1 hour): 48%
- miosis, recovered to % of 0 time (owl monkeys [4]; topical 200 µg/10 µl, within 3 to 6 hours): 15%
- EC50 [5]: 30 µM
- EC50 ([6]; cat iris sphincter muscle): 20 µM
